These results are taken from ChEMBL document CHEMBL1153947, “Carbonic anhydrase inhibitors. Inhibition of cytosolic isoforms I, II, III, VII and XIII with less investigated inorganic anions” (Bioorg Med Chem Lett, 2009).

Each structure is given as a SMILES string. pKi: −log10 of the molar value.

For assay [1], the target named is Carbonic anhydrase 1 (Homo sapiens, UniProt P00915). Nature of the assay: Inhibition of human recombinant carbonic anhydrase 1-catalyzed CO2 hydration by stopped flow assay.
The target in assay [2] is Carbonic anhydrase 7 (Homo sapiens, UniProt P43166). Put plainly: Inhibition of human recombinant carbonic anhydrase 7-catalyzed CO2 hydration by stopped flow assay.
The target of assay [3] is Carbonic anhydrase 13 (Mus musculus, UniProt Q9D6N1). Put plainly: Inhibition of mouse recombinant carbonic anhydrase 13-catalyzed CO2 hydration by stopped flow assay.
Assay [4] has as its target Carbonic anhydrase 2 (Homo sapiens, UniProt P00918). Put plainly: Inhibition of human recombinant carbonic anhydrase 2-catalyzed CO2 hydration by stopped flow assay.

Sequence of Carbonic anhydrase 1 (P00915 whole entry): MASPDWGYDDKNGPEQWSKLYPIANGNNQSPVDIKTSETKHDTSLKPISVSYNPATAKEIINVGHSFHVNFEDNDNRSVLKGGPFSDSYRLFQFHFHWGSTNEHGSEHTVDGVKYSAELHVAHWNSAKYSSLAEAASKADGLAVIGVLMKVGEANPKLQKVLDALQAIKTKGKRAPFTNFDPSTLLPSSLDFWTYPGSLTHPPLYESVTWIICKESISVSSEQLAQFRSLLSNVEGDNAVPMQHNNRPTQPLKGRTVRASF
Sequence of Carbonic anhydrase 7 (P43166 whole entry): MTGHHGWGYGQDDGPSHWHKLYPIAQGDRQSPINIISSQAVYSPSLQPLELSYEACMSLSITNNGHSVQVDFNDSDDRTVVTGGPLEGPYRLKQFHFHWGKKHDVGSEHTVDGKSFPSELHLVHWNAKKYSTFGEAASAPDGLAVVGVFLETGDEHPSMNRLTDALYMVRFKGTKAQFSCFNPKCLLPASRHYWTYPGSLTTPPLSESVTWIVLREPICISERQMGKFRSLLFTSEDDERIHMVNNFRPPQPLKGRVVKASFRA
Sequence of Carbonic anhydrase 13 (Q9D6N1 whole entry): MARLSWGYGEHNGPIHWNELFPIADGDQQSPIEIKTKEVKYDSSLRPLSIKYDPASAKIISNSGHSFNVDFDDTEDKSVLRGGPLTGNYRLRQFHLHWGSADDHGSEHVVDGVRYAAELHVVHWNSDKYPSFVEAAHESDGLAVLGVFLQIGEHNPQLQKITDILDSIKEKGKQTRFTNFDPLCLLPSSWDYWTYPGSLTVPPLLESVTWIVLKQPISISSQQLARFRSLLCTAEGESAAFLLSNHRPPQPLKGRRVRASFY

Consider `CCN(CC)C(=S)S` [DITIOCARB SODIUM], for which the negative logarithm of the Ki (pKi) in assay [1] is 6.10; in assay [2], 2.83; in assay [3], 4.25.

With `S=C(S)S` [SODIUM CARBONOTRITHIOATE], the figures for the pKi in assay [1], in assay [2] and in assay [3] were 5.06, 1.44 and 3.37, respectively.

In the case of `O=S(=O)(O)NS(=O)(=O)O` [SODIUM IMINODISULFONATE], the negative logarithm of the Ki (pKi) in assay [1] is 3.51; in assay [2] it was 1.41; in assay [3], 3.01.

In the case of `O=S(=O)(O)OOS(=O)(=O)O` [SODIUM PERSULFATE], the values for the pKi in assay [2] and in assay [3] were 2.51 and 2.37, respectively.

Regarding `O=P(O)(O)OP(=O)(O)O` [SODIUM PYROPHOSPHATE], the negative-log Ki (pKi) in assay [1] was 1.59; in assay [2] it was 3.06; in assay [3], 3.14.

For the compound `O=S(=O)(O)OS(=O)(=O)O` [SODIUM PYROSULFATE], the pKi was 3.00 in assay [1], 3.01 in assay [4], 3.12 in assay [2] and 3.15 in assay [3].

Regarding `O=[Se](=O)(O)O` [SODIUM SELENATE], the pKi in assay [1] was 0.93; in assay [2], 0.67; in assay [3], 0.32.

On to `N#C[SeH]` [SODIUM SELENOCYANATE], for which the pKi is 4.07 in assay [1], 2.96 in assay [2] and 1.58 in assay [3].

For the compound `O=[Te](=O)(O)O` [SODIUM TELLURATE], the negative-log Ki (pKi) in assay [1] is 3.18; in assay [2], 3.34; in assay [3], 3.42.

As usually defined, the pKi is the negative decadic logarithm of the Ki, by convention in mol/L.
